The source of these data is paper PMC5503601 (Oncotarget, 2017).

“And” between values parts separate entries of the source, which are not always exact repeats. Equal entries are not always repeated. Where two headings read alike, the source gives them in different places.

Data set [1] concerns shTOPK and shMock infected cancer cells. In words: Growth of shMock versus shTOPK infected cells (CCK8). The format is cell-based, human. Conditions: 48 hours. From the text:
To investigate the growth-promoting role of TOPK in cancer cells, the expression of endogenous TOPK was knocked down in four cancer cells. By lentiviral infection, HCT116, ES-2, A549 and SW1990 cell lines stably expressing low levels of TOPK (shTOPK) were established. As the control, cells were infected with shMock. The abundance of TOPK in these cells was confirmed by western blot analysis (Figure 2a).
The effect of ilaprazolewas examined in shMock and knockdown cell lines with shTOPK. Cells were incubated for 48 hours and growth was determined by cck8 assay.
“The target sequences of oligo siRNAs were as follows: 5′-[…] -3′ for TOPK to produce lentiviral particles.”
The transfection medium was changed at 4 hours after transfection and then cells were cultured for 36 hours. The viral particles were harvested by filtration using a […] syringe filter, then combined with […] of polybrene (Millipore) and infected into 60% confluent HCT-116 cells overnight. The cell culture medium was replaced with fresh complete growth medium for 24 hours and then cells were selected with puromycin ([…]) for 36 hours. The selected cells were used for experiments.

Data set [2] concerns HCT116 cells. In words: Apoptosis by flow cytometry (Annexin V/propidium iodide), HCT116. The format is cell-based, human. As to conditions: HCT116, 50 μM, 24 h; control 2%. As for the experimental part:
(§1) Cells were pre-treated with different concentrations of ilaprzole for 24 h, and then the cellular apoptosis was measured by using flow cytometry. […] Apoptotic cells were assessed by staining PBS washed cells with phycoerythrin (PE)-conjugated annexin-V (BD Pharmingen) for 10-15 minutes in incubation buffer (Annexin-V-FLUOS Staining Kit, Roche). Fluorescence was recorded by flow cytometry using the FACS Aria (BD Bio sciences).

Data set [3] concerns A549, HCT116, ES-2 and SW1990 cells. In words: Cell viability (cck8) assay, 4 TOPK-positive cancer cell lines. The format is cell-based. As to conditions: Homo sapiens; range over A549, HCT116, ES-2, SW1990; read-out: IC50 values, growth inhibition across the cell lines. As for the experimental part: TOPK protein levels were measured by western blot in cancer cell lines derived from various cancer types, such as lung cancer (A549), colon cancer (HCT116), human ovarian cancer (ES-2) and pancreatic cancer cell (SW1990).
(§2) To estimate cell viability, human colon cancer HCT 116, ES-2, A549 and SW1990 cells (5000 cells/well) were seeded in 96-well plates for 24 h at 37°C in a 5% CO2 incubator. […] All experiments were performed in triplicate, and the mean absorbance values were calculated.

For data set [4], the system named is HCT116 cells. In words: Cell viability (cck8) assay, HCT116. The format is cell-based. Conditions: Homo sapiens, HCT-116, read-out: IC50 for HCT116 cell activities. The method, then: as §2
For data set [5], the system named is TOPK activity (phosphorylation of histone H3 Ser10) in HCT116 cells. In words: Western blot of phosphorylated histone H3 (Ser10), HCT116. The format is cell-based, human. The method, then:
(§3) TOPK proteins were expressed mainly around chromosomal surfaces in mitotic cells, particularly at prophase and metaphase, so the histone was chosen as the substrate for TOPK activity evaluation. Some reports confirmed that TOPK could phosphorylate histone H3 in vitro and in vivo. […] (Figure 3a, 3b, Supplementary Figure 1a, 1b)
(§4) Histones were extracted from cells by disrupting the cells with NETN buffer [150 mM NaCl, 1 mM EDTA, 20 mM Tris-HCl (pH 8.0), 0.5% nonionic detergent IGEPAL CA 630(NP-40), Sigma]. The insoluble fraction was pelleted for 5 minutes in a microcentrifuge (8,400 rpm). Nuclei were extracted with 0.1 M HCl to isolate the total histones. The samples were precipitated with 1 M Tris- HCl (pH 8.0) and then resuspended in ddH2O.
(§5) The harvested cells were lysed with lysis buffer (50 mM Tris-HCl (pH 7.4), 150 mM NaCl, 1 mM EDTA, 1 mM EGTA, […], 5 mM phenylmethanesulfonyluoride (PMSF), 1 mM dithiolthreitol (DTT) containing 1% Triton X-100). Insoluble debris was removed by centrifugation at 12000 rpm for 15 minutes, and protein's content was determined using Bradford reagent (Bio-Rad, USA). Lysate protein (20-40 μg) was subjected to 10% SDS-PAGE and electrophoretically transferred to polyvinylidene difluoride membranes (PVDF) (Millipore, USA). […] Band density was quantified using the Image J software program (NIH).

A further data set relates to HCT116 xenograft. In words: HCT116 xenograft mouse model, tumor growth. As to conditions: for tumor weight: control 1.45 ± 0.33 g. The format is in vivo, CB-17/Icr-scid mice. As for the experimental part: (§6) Estimated tumor volumes of both treating groups were less than that of the control group throughout the treatment. […] Animals were then scarified and the average tumor weights were measured and calculated. The tumor weight of the control group was 1.45 ± 0.33 g, whereas the tumor weights of low-dose and high-dose treated groups were 0.67 ± 0.21g and 0.52 ± 0.11g, respectively (Figure 5c), representing significant reduction.
(§7) CB-17/Icr-scid mice were purchased from Beijing HFK Bioscience CO., LTD (Beijing, China). The animals were maintained under ‘specific pathogen free’ conditions. The mice were randomly divided into three groups: (i) vehicle group (n = 8); (ii) 150 mg/kg ilaprazole-treated group (n = 8); (III) 75 mg/kg ilaprazole-treated group. HCT 116 cells were inoculated subcutaneously (2 × 10^6 cells) into the left flank of each mouse in all groups. Treatment was started after 4 days of cell injection. The duration of the animal study was 19 days. The tumor volume was calculated from measurements of 3 diameters of the individual tumor based on the following formula:
tumor volume (mm^3) = (length × width × height × 0.52). The mice were monitored until tumors reached 1 cm^3 total volume, at which the mice were euthanized and the tumors were extracted. The tumors were dissected and sent for immune-histochemical analysis.

Data set [6] can be described thus: HCT116 xenograft mouse model, toxicity and body weight. The format is in vivo, CB-17/Icr-scid mice. The method, then: as §6
as §7, with “formula: […]” for “formula:”

Data set [7] deals with ES-2 cells. In words: Cell viability (cck8) assay, ES-2. The format is cell-based. As to conditions: Homo sapiens, read-out: IC50, growth of ES-2 cells. As for the experimental part: as §2
The subject of data set [8] is ES-2 cells. In words: Apoptosis by flow cytometry (Annexin V/propidium iodide), ES-2. The format is cell-based, human. As to conditions: ES-2, 50 μM, 24 h; control 2%. The method, then: as §1
The conditions of data set [9]: rat, in vivo; cited from earlier work.
On the set-up of data set [10]: method as in SciFinder Academic database. Conditions: ref SciFinder Academic database; cited from earlier work.
For data set [11], the system named is HCT116 cells. In words: Cell cycle distribution by flow cytometry, HCT116. As to conditions: HCT116, increasing doses, 48 hours. The format is cell-based, human.
Data set [12] has as its system TOPK activity (phosphorylation of histone H3 Ser10) in ES-2 cells. In words: Western blot of phosphorylated histone H3 (Ser10), ES-2. The format is cell-based, human. As for the experimental part: as §3, §4, §5
Another data set has as its target T1, TOPK (Homo sapiens, UniProt Q96KB5).
T1 construct: hexa-histidine; made in house; host or cells: Escherichia coli BL21 (DE)
T1 sequence (Q96KB5 1-322): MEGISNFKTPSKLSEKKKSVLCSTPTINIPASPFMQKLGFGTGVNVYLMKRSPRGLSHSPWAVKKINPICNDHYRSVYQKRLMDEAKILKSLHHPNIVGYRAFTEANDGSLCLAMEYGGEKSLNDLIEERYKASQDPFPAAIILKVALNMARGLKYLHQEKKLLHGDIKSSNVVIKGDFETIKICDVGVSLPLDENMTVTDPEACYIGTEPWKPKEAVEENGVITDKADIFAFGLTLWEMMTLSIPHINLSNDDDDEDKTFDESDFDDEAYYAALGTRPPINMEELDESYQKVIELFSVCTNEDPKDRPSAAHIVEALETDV
In words: Microscale thermophoresis (MST) binding assay. Conditions: labeled TOPK 50 nM, 25°C, means ± SD for three experiments. From the text: To validate results of the virtual ligand screening, we employed microscale therm ophoresis method (MST) to assay the binding affinity between compounds and TOPK. This technology detected fluorescent changes of molecules during thermophoresis, to quantify protein-protein interactions or protein-small molecule interactions with high sensitivity and low sample cost.
Human TOPK gene (Accssion number: NM_018492) was cloned into the pET26b vector (Novagen). The expression construct pET26b-TOPK was transformed into Escherichia coli strain BL21 (DE) (Invitrogen) and selected on kanamycin plates. The transformed cells were cultivated in Luria-Bertani (LB) media at 37°C in the presence of kanamycin until the optical density (OD) reached 0.8. Cells were then induced with 0.4 mM IPTG (isopropyl-β-D-1-thiogalactopyranoside) for 16 h at 20°C. The cells harvested by centrifugation were lysed by ultrasonication on ice in a buffer containing 20 mM Tris, pH 8.5, 200 mM NaCl, 5 mM mercaptoethanol, 0.1% TritonX-100, and 5% glycerol.
Soluble hexa-histidine tagged TOPK was bound to Ni-agarose affinity resin (Qiagen), washed with buffer A (20 mM Tris, pH 8.5, 200mM NaCl, and 10 mM imidazole), and eluted with buffer B (20 mM Tris, pH 8.8, 250 mM NaCl, and 150 mM imidazole).
Recombinant TOPK was labeled with the Monolith NT™ Protein Labeling Kit RED (Cat # L001) according to the supplied labeling protocol. Labeled TOPK was used in a concentration of 50 nM. The samples were diluted in a 20 mM HEPES (pH 7.4) and 0.5 (v/v) % Tween-20. The prazoles stocks were dissolved in 10% DMSO in a concentration of 1 mM. 1mM prazoles were used as the highest concentration for serial dilutions. After 10minutes incubation at room temperature, the samples were loaded into Monolith^TM standard-treated capillaries and the thermophoresis was measured at 25°C after 30 minutes incubation on a Monolith NT.115 instrument (NanoTemper Technologies, München, Germany). Laser power was set to 20% using 30 seconds on-time. The LED power was set to 100%. The dissociation constant Kd values were fitted by using the NTAnalysis software (NanoTemper Technologies, München, Germany).

On to `COc1ccnc(C[S+]([O-])c2nc3cc(-n4cccc4)ccc3[nH]2)c1C` (centres unmarked) [Ilaprazole, ilaprazole], for which the “growth inhibition of shTOPK cells compared with shMock cells” value in data set [1] was “resistant to the inhibitory effect”. For the same molecule, the apoptotic death with HCT116 cells [2] was 32.03%; in the data set on ES-2 cells [8], 7.62%. In addition, the values for the IC50 (in data set [3]; in the data set with HCT116 cells [4]; with ES-2 cells [7]) were 30.1 to 148 µM, 40 ± 0.6 µM and 33.2 ± 1 µM, respectively. Besides, the “phosphorylation of histone H3 (Ser10)” value in [5] and in data set [12] was “substantially attenuated in a dose-dependent manner” each time. Moreover, the tumor weight was 0.67 ± 0.21 g with HCT116 xenograft (75 mg/kg daily via gavage (low-dose)) and 0.52 ± 0.11 g in the data set on HCT116 xenograft (150 mg/kg daily via gavage (high-dose)). For the same molecule, the tumor volume result in the data set on HCT116 xenograft (75 and 150 mg/kg daily via gavage, after 2 weeks' treatment) is “Significant decreases”. For the same molecule, in the data set on HCT116 xenograft (ilaprazole-treated groups versus vehicle group), the “phosphorylated histone H3 in tumor tissues (immunohistochemistry)” value is on record as “substantially decreased”. Further, in data set [6] (mice treated daily for 15 days), the “microstructures of sections of the liver, kidney and spleen” value is “No significant damage”. Besides, the hepatotoxicity and nephrotoxicity result in data set [6] (mice, 75 and 150 mg/kg oral) is “no obvious hepatotoxicity and nephrotoxicity”. In data set [6] (mice, 75 and 150 mg/kg via gavage), the mouse body weight result is “no effect”. The LD50 result in data set [9] was “more than 5000 mg/kg”. Besides, in data set [10], the logP value is 2.882 ± 1.045. Also, the cell cycle distribution result in the data set with HCT116 cells [11] is “cell cycle arrested at the G1 phase”. Also, on TOPK (read-out: Kd), the Kd amounted to 111 ± 2.3 µM.

Consider `COc1ccc2[nH]c([S+]([O-])Cc3ncc(C)c(OC)c3C)nc2c1` (centres unmarked) [Omeprazole, omeprazole], for which the IC50 in the data set with HCT116 cells [4] is 348 ± 7.3 µM. Besides, the dissociation constant Kd at TOPK (read-out: Kd) was determined as 174 µM.

In the case of `CCSc1ccnc(C[S+]([O-])c2nc3ccccc3[nH]2)c1C` (centres unmarked) [Disuprazole, disuprazole], in the data set with HCT116 cells [4], the IC50 is over 500 µM. Moreover, the Kd result on TOPK is “n.b^c”.

Consider `COc1ccc2nc([S@@+]([O-])Cc3ncc(C)c(OC)c3C)[nH]c2c1` [Esomeprazole, esomeprazole], for which the IC50 in the data set with HCT116 cells [4] is over 500 µM. Further, the Kd result on TOPK is reported as “n.b^c”.

With `COCCCOc1ccnc(C[S+]([O-])c2nc3ccccc3[nH]2)c1C` (centres unmarked) [Rabeprazole, rabeprazole], the IC50 in the data set with HCT116 cells [4] is over 500 µM. In addition, the Kd on TOPK (read-out: Kd) is 324 µM.

Consider `Cc1c(OCC(F)(F)F)ccnc1C[S+]([O-])c1nc2ccccc2[nH]1` (centres unmarked) [Lansoprazole, lansoprazole], for which the 50% inhibitory concentration (IC50) with HCT116 cells [4] came out at 103 ± 4.1 µM. For the same molecule, the Kd on TOPK (read-out: Kd) is 241 µM and 242 µM.

As to `COc1ccnc(C[S+]([O-])c2nc3ccc(OC(F)F)cc3[nH]2)c1OC` (centres unmarked) [Pantoprazole, pantoprazole], the IC50 with HCT116 cells [4] is 153 ± 8.5 µM. Moreover, the logP value in data set [10] was 1.571 ± 1.065. For the same molecule, the Kd on TOPK (read-out: Kd) was 24 µM and 24.2 µM.
